From patent publication US20080107623A1, “Inhibitors of Hepatitis C Virus” (Bristol-Myers Squibb Company, priority 2006, published 2008)

Target: T1, HCV NS3/4A protease complex, H77 strain (Hepatitis C virus genotype 1a, UniProt P27958, C1454S/C1711G)
T1 construct: recombinant HCV NS3/4A protease complex (amino acids 1027 to 1711) for these strains; made in house; host or cells: Escherichia coli BL21 (DE3), pET21b
Test: FRET peptide assay to monitor HCV NS3/4A proteolytic activity (H77 strain)
Type: biochemical, HCV genotype 1a
Conditions: read-out: IC50 against NS3/4A H77 strain
Excerpt: HCV NS3 protease complexes, derived from the BMS strain, H77 strain or J4L6S strain, were generated, as described below. These purified recombinant proteins were generated for use in a homogeneous assay (see below) to provide an indication of how effective compounds of the present disclosure would be in inhibiting HCV NS3 proteolytic activity.
The H77 and J4L6S strains were used for production of recombinant NS3/4A protease complexes. DNA encoding the recombinant HCV NS3/4A protease complex (amino acids 1027 to 1711) for these strains were manipulated as described by P. Gallinari et al. (see Gallinari P, Paolini C, Brennan D, Nardi C, Steinkuhler C, De Francesco R. Biochemistry. 38(17):5620-32, (1999)). Briefly, a three-lysine solubilizing tail was added at the 3′-end of the NS4A coding region. The cysteine in the P1 position of the NS4A-NS4B cleavage site (amino acid 1711) was changed to a glycine to avoid the proteolytic cleavage of the lysine tag. Furthermore, a cysteine to serine mutation was introduced by PCR at amino acid position 1454 to prevent the autolytic cleavage in the NS3 helicase domain. […]

T1 sequence (P27958 1027-1711 C1454S/C1711G, one chain of several): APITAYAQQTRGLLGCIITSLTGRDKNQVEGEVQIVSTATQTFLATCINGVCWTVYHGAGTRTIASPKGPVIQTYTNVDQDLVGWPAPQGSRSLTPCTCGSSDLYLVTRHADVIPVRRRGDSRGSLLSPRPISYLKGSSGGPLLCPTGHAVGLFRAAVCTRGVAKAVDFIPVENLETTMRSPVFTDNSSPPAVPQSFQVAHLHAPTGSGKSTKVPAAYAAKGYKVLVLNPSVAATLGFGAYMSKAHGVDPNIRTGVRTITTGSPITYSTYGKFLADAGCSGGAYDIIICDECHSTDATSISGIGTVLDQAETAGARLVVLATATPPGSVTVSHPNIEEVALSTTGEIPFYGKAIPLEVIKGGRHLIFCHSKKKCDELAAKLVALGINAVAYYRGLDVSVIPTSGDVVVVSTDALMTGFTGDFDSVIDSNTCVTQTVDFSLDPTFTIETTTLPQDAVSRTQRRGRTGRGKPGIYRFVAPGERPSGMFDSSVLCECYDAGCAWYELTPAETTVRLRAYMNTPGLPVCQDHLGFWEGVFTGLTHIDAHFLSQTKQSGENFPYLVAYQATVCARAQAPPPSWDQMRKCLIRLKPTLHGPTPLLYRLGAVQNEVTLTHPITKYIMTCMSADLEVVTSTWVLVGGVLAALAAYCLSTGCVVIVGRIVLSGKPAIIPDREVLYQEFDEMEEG

COc1c(O[C@@H]2C[C@H]3C(=O)N[C@]4(C(=O)NS(=O)(=O)C5CC5)C[C@H]4/C=C\CCCCC[C@H](NC(=O)OC(C)(C)C)C(=O)N3C2)ccc2c(Cl)nccc12 [Compound 3]
IC50: 0.6 nM
